# pIC50: −log10 of the molar value. Calls of active or inactive are those of the source. The calls are words filed in the database; no cut-off is given here.
# Experiments:
# HT-29 = assay: Antiproliferative activity against human HT-29 cells after 2 days by MTT assay; assay type: functional, cell-based; settings: HT-29, 48 h
# MCF7 = assay: Antiproliferative activity against human MCF7 cells after 2 days by MTT assay; assay type: functional, cell-based; settings: MCF7, 48 h
# HeLa = assay: Antiproliferative activity against human HeLa cells after 2 days by MTT assay; assay type: functional, cell-based; settings: 48 h
# A549 [1] = assay: Antiproliferative activity against human A549 cells after 2 days by MTT assay; assay type: functional, cell-based; settings: A549, 48 h
# HL-60 = assay: Antiproliferative activity against human HL60 cells after 2 days by MTT assay; assay type: functional, cell-based; settings: HL-60, 48 h
# HMEC-1 = assay: Antiproliferative activity against HMEC1 cells after 2 days by MTT assay; assay type: functional, cell-based; settings: Homo sapiens, HMEC-1, 48 h
# HEK293 = assay: Antiproliferative activity against HEK293 cells after 2 days by MTT assay; assay type: cell-based; settings: Homo sapiens, HEK293, 48 h
# MDA-MB-231 = assay: Antiproliferative activity against human MDA-MB-231 cells after 3 days by coulter counting method; assay type: functional, cell-based; settings: MDA-MB-231, 72 h
# A549 [2] = assay: Cell cycle arrest in human A549 cells assessed as accumulation at sub-G0 phase at 70 nM after 20 hrs by propidium iodide staining based flow cytometry (reference value: 6.6 +/- 0.1%); assay type: functional
# A549 [3] = assay: Cell cycle arrest in human A549 cells assessed as accumulation at G0/G1 phase at 70 nM after 20 hrs by propidium iodide staining based flow cytometry (reference value: 66 +/- 1%); assay type: functional
# A549 [4] = assay: Cell cycle arrest in human A549 cells assessed as accumulation at S phase at 70 nM after 20 hrs by propidium iodide staining based flow cytometry (reference value: 16 +/- 1%); assay type: functional
# A549 [5] = assay: Cell cycle arrest in human A549 cells assessed as accumulation at G2/M phase at 70 nM after 20 hrs by propidium iodide staining based flow cytometry (reference value: 11 +/- 1%); assay type: functional
# A549 [6] = assay: Cell cycle arrest in human A549 cells assessed as accumulation at sub-G0 phase at 450 nM after 20 hrs by propidium iodide staining based flow cytometry (reference value: 6.6 +/- 0.1%); assay type: functional
# A549 [7] = assay: Cell cycle arrest in human A549 cells assessed as accumulation at G0/G1 phase at 450 nM after 20 hrs by propidium iodide staining based flow cytometry (reference value: 66 +/- 1%); assay type: functional
# A549 [8] = assay: Cell cycle arrest in human A549 cells assessed as accumulation at S phase at 450 nM after 20 hrs by propidium iodide staining based flow cytometry (reference value: 16 +/- 1%); assay type: functional
# A549 [9] = assay: Cell cycle arrest in human A549 cells assessed as accumulation at G2/M phase at 450 nM after 20 hrs by propidium iodide staining based flow cytometry (reference value: 11 +/- 1%); assay type: functional
# [10] = Selectivity index, ratio of IC50 for antiproliferative activity against HEK293 cells to IC50 for antiproliferative activity against human MCF7 cells; assay type: toxicity, cell-based; settings: HEK293 cells versus MCF7 cells, read-out: Ratio IC50
# [11] = Selectivity index, ratio of IC50 for antiproliferative activity against HEK293 cells to IC50 for antiproliferative activity against human HT-29 cells; assay type: toxicity, cell-based; settings: HEK293 cells versus HT-29 cells, read-out: Ratio IC50
# [12] = Selectivity index, ratio of IC50 for antiproliferative activity against HEK293 cells to IC50 for antiproliferative activity against human HeLa cells; assay type: toxicity, cell-based; settings: HEK293 cells versus HeLa cells, read-out: Ratio IC50
# [13] = Selectivity index, ratio of IC50 for antiproliferative activity against HEK293 cells to IC50 for antiproliferative activity against human HL60 cells; assay type: toxicity, cell-based; settings: HEK293 cells versus HL60 cells, read-out: Ratio IC50
# A549 [14] = assay: Cell cycle arrest in human A549 cells assessed as accumulation at sub-G0 phase at 135 nM after 20 hrs by propidium iodide staining based flow cytometry (reference value: 6.6 +/- 0.1%); assay type: functional
# A549 [15] = assay: Cell cycle arrest in human A549 cells assessed as accumulation at G0/G1 phase at 135 nM after 20 hrs by propidium iodide staining based flow cytometry (reference value: 66 +/- 1%); assay type: functional
# A549 [16] = assay: Cell cycle arrest in human A549 cells assessed as accumulation at S phase at 135 nM after 20 hrs by propidium iodide staining based flow cytometry (reference value: 16 +/- 1%); assay type: functional
# A549 [17] = assay: Cell cycle arrest in human A549 cells assessed as accumulation at G2/M phase at 135 nM after 20 hrs by propidium iodide staining based flow cytometry (reference value: 11 +/- 1%); assay type: functional
# A549 [18] = assay: Cell cycle arrest in human A549 cells assessed as accumulation at sub-G0 phase at 2000 nM after 20 hrs by propidium iodide staining based flow cytometry (reference value: 6.6 +/- 0.1%); assay type: functional
# A549 [19] = assay: Cell cycle arrest in human A549 cells assessed as accumulation at G0/G1 phase at 2000 nM after 20 hrs by propidium iodide staining based flow cytometry (reference value: 66 +/- 1%); assay type: functional
# A549 [20] = assay: Cell cycle arrest in human A549 cells assessed as accumulation at G2/M phase at 2000 nM after 20 hrs by propidium iodide staining based flow cytometry (reference value: 11 +/- 1%); assay type: functional
# A549 [21] = assay: Cell cycle arrest in human A549 cells assessed as accumulation at sub-G0 phase at 650 nM after 20 hrs by propidium iodide staining based flow cytometry (reference value: 6.6 +/- 0.1%); assay type: functional
# A549 [22] = assay: Cell cycle arrest in human A549 cells assessed as accumulation at G0/G1 phase at 650 nM after 20 hrs by propidium iodide staining based flow cytometry (reference value: 66 +/- 1%); assay type: functional
# A549 [23] = assay: Cell cycle arrest in human A549 cells assessed as accumulation at S phase at 650 nM after 20 hrs by propidium iodide staining based flow cytometry (reference value: 16 +/- 1%); assay type: functional
# A549 [24] = assay: Cell cycle arrest in human A549 cells assessed as accumulation at G2/M phase at 650 nM after 20 hrs by propidium iodide staining based flow cytometry (reference value: 11 +/- 1%); assay type: functional
# A549 [25] = assay: Disruption of microtubule network in human A549 cells assessed as appearance of tubulin aggregates at 220 nM after 16 hrs by Hoechst staining based immunofluorescence assay; assay type: cell-based
# A549 [26] = assay: Disruption of microtubule network in human A549 cells assessed as appearance of compressed and fragmented nuclei at 220 nM after 16 hrs by Hoechst staining based immunofluorescence assay; assay type: cell-based
# A549 [27] = assay: Cell cycle arrest in human A549 cells assessed as accumulation at sub-G0 phase at 55 nM after 20 hrs by propidium iodide staining based flow cytometry (reference value: 6.6 +/- 0.1%); assay type: functional
# A549 [28] = assay: Cell cycle arrest in human A549 cells assessed as accumulation at G0/G1 phase at 55 nM after 20 hrs by propidium iodide staining based flow cytometry (reference value: 66 +/- 1%); assay type: functional
# A549 [29] = assay: Cell cycle arrest in human A549 cells assessed as accumulation at S phase at 55 nM after 20 hrs by propidium iodide staining based flow cytometry (reference value: 16 +/- 1%); assay type: functional
# A549 [30] = assay: Cell cycle arrest in human A549 cells assessed as accumulation at G2/M phase at 55 nM after 20 hrs by propidium iodide staining based flow cytometry (reference value: 11 +/- 1%); assay type: functional
# A549 [31] = assay: Cell cycle arrest in human A549 cells assessed as accumulation at sub-G0 phase at 750 nM after 20 hrs by propidium iodide staining based flow cytometry (reference value: 6.6 +/- 0.1%); assay type: functional
# A549 [32] = assay: Cell cycle arrest in human A549 cells assessed as accumulation at G0/G1 phase at 750 nM after 20 hrs by propidium iodide staining based flow cytometry (reference value: 66 +/- 1%); assay type: functional
# A549 [33] = assay: Cell cycle arrest in human A549 cells assessed as accumulation at S phase at 750 nM after 20 hrs by propidium iodide staining based flow cytometry (reference value: 16 +/- 1%); assay type: functional
# A549 [34] = assay: Cell cycle arrest in human A549 cells assessed as accumulation at G2/M phase at 750 nM after 20 hrs by propidium iodide staining based flow cytometry (reference value: 11 +/- 1%); assay type: functional
# Bos taurus = species on record: Bos taurus; assay: Inhibition of calf brain tubulin polymerization after 60 mins by turbidimetric method
# A549 [35] = assay: Cell cycle arrest in human A549 cells assessed as accumulation at sub-G0 phase at 45 nM after 20 hrs by propidium iodide staining based flow cytometry (reference value: 6.6 +/- 0.1%); assay type: functional
# A549 [36] = assay: Cell cycle arrest in human A549 cells assessed as accumulation at G0/G1 phase at 45 nM after 20 hrs by propidium iodide staining based flow cytometry (reference value: 66 +/- 1%); assay type: functional
# A549 [37] = assay: Cell cycle arrest in human A549 cells assessed as accumulation at S phase at 45 nM after 20 hrs by propidium iodide staining based flow cytometry (reference value: 16 +/- 1%); assay type: functional
# A549 [38] = assay: Cell cycle arrest in human A549 cells assessed as accumulation at G2/M phase at 45 nM after 20 hrs by propidium iodide staining based flow cytometry (reference value: 11 +/- 1%); assay type: functional
# A549 [39] = assay: Induction of apoptosis in human A549 cells at 100 nM after 24 hrs by Annexin V-FITC/propidium iodide staining based flow cytometry (reference value: 28%); assay type: functional
# A549 [40] = assay: Induction of apoptosis in human A549 cells at 10 nM after 24 hrs by Annexin V-FITC/propidium iodide staining based flow cytometry (reference value: 28%); assay type: functional
# A549 [41] = assay: Induction of apoptosis in human A549 cells after 24 hrs by Annexin V-FITC/propidium iodide staining based flow cytometry; assay type: functional, cell-based
SMILES,pIC50 (HT-29),pIC50 (MCF7),pIC50 (HeLa),pIC50 (A549 [1]),pIC50 (HL-60),pIC50 (HMEC-1),pIC50 (HEK293),pIC50 (MDA-MB-231),further results
COc1ccc(/C=C\c2cc(OC)c(OC)c(OC)c2)cc1NC(=O)Oc1cccc(Cl)c1C,7.33,7.41,7.64,6.85,7.15,7.70,7.85,7.85,Activity (A549 [2]): 20%; Activity (A549 [3]): 24%; Activity (A549 [4]): 18%; Activity (A549 [5]): 39%
COc1ccc(/C=C\c2cc(OC)c(OC)c(OC)c2)cc1NC(=O)Oc1cccc(C)c1C,6.76,7.80,7.40,6.05,7.23,6.85,7.10,7.18,Activity (A549 [6]): 12%; Activity (A549 [7]): 24%; Activity (A549 [8]): 22%; Activity (A549 [9]): 42%
COc1ccc(/C=C\c2cc(OC)c(OC)c(OC)c2)cc1NC(=O)Oc1ccc(C(F)(F)F)cc1,7.56,8.04,7.68,6.57,7.40,7.52,7.24,7.67,selectivity ratio [10]: 2 to 11; selectivity ratio [11]: 2 to 11; selectivity ratio [12]: 2 to 11; selectivity ratio [13]: 2 to 11; Activity (A549 [14]): 26%; Activity (A549 [15]): 22%; Activity (A549 [16]): 14%; Activity (A549 [17]): 39%
COc1ccc(/C=C\c2cc(OC)c(OC)c(OC)c2)cc1NC(=O)Oc1c(C)cccc1C,6.22,6.36,6.49,5.41,6.33,6.42,6.31,7.12,Activity (A549 [18]): 23%; Activity (A549 [19]): 25%; Activity (A549 [20]): 35%
COc1ccc(/C=C\c2cc(OC)c(OC)c(OC)c2)cc1NC(=O)Oc1ccc(C)c(C)c1,6.89,6.77,7.68,5.89,7.16,6.89,7.01,7.39,Activity (A549 [21]): 17%; Activity (A549 [22]): 24%; Activity (A549 [23]): 19%; Activity (A549 [24]): 41%
COc1ccc(/C=C\c2cc(OC)c(OC)c(OC)c2)cc1NC(=O)Oc1ccccc1C(F)(F)F,7.80,7.36,7.82,6.96,8.17,7.72,8.39,7.86,Activity (A549 [25]): Active; Activity (A549 [26]): Active; Activity (A549 [27]): 20%; Activity (A549 [28]): 21%; Activity (A549 [29]): 15%; Activity (A549 [30]): 44%
COc1ccc(/C=C\c2cc(OC)c(OC)c(OC)c2)cc1NC(=O)Oc1ccc(C)cc1,6.57,6.70,6.43,5.82,7.28,6.80,6.84,7.85,Activity (A549 [31]): 27%; Activity (A549 [32]): 24%; Activity (A549 [33]): 16%; Activity (A549 [34]): 32%
COc1ccc(/C=C\c2cc(OC)c(OC)c(OC)c2)cc1NC(=O)Oc1ccc(C)c(Cl)c1,7.64,8.21,8.43,7.05,8.74,8.22,8.15,7.86,inhibition (Bos taurus): Active; Activity (A549 [35]): 29%; Activity (A549 [36]): 21%; Activity (A549 [37]): 14%; Activity (A549 [38]): 36%; Activity (A549 [39]): 46%; Activity (A549 [40]): 23%; Activity (A549 [41]): Dose-dependent effect

# From ChEMBL document CHEMBL4145540 (Eur J Med Chem, 2018)
